Results on 16 compounds are retold here after PubChem BioAssay (NCI).

Some test systems named below: CCRF-CEM leukemia; HOP-92 NSCLC; IGROV1 ovarian; K-562 leukemia; MDA-MB-231 breast; MDA-MB-435; MOLT-4 leukemia; OVCAR-3 ovarian; OVCAR-4 ovarian; OVCAR-8 ovarian; RXF 393 renal; SK-MEL-2 melanoma; UACC-62 melanoma.
Common to all, as to assay: growth of human tumour cells (NCI), 48 h

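Interpolation was linear, between the two tested concentrations surrounding the appropriate level; five concentrations were tested over 48 hours in 96-well plates. TGI denotes the concentration required for complete inhibition of growth.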

For `COC(=O)C(Cc1ccccc1)NS(=O)(=O)c1ccc(-c2c3nc(c(-c4ccc(S(=O)(=O)NC(Cc5ccccc5)C(=O)OC)cc4)c4ccc([nH]4)c(-c4ccc(S(=O)(=O)NC(Cc5ccccc5)C(=O)OC)cc4)c4nc(c(-c5ccc(S(=O)(=O)NC(Cc6ccccc6)C(=O)OC)cc5)c5ccc2[nH]5)C=C4)C=C3)cc1` (stereo unspecified), the TGI with CCRF-CEM leukemia, with HOP-92 NSCLC, in the experiment with IGROV1 ovarian, in the experiment with K-562 leukemia, in the experiment on MDA-MB-231 breast and in the experiment on MDA-MB-435 was over 100 µM each time. For the same compound, the TGI in the experiment with MOLT-4 leukemia, with OVCAR-3 ovarian, in the experiment with OVCAR-4 ovarian, in the experiment with OVCAR-8 ovarian, in the experiment on RXF 393 renal and in the experiment on SK-MEL-2 melanoma was over 100 µM throughout. In the experiment on UACC-62 melanoma, this compound came in with a TGI of over 100 µM.

In the case of `COC(=O)c1ccccc1CC1Cc2cc3c(cc2C1)CCC3`, the TGI with CCRF-CEM leukemia was 39.1 µM; with HOP-92 NSCLC, 71.2 µM; in the experiment with IGROV1 ovarian, over 100 µM; in the experiment with K-562 leukemia, 61.1 µM; in the experiment with MDA-MB-231 breast, over 100 µM; in the experiment on MDA-MB-435 it was 84.2 µM. For the same compound, the TGI was 38.8 µM with MOLT-4 leukemia; over 100 µM with OVCAR-3 ovarian; over 100 µM in the experiment with OVCAR-4 ovarian; over 100 µM with OVCAR-8 ovarian; 63.6 µM in the experiment on RXF 393 renal; 43.9 µM in the experiment on SK-MEL-2 melanoma.

In the case of `OC[C@H]1CC(c2nn[nH]n2)[C@H](O)[C@@H]1O` (stereo partly specified), the TGI in the experiment on CCRF-CEM leukemia, in the experiment on HOP-92 NSCLC, in the experiment on IGROV1 ovarian, with K-562 leukemia, in the experiment on MDA-MB-231 breast and with MDA-MB-435 was over 100 µM in each case. The TGI in the experiment on MOLT-4 leukemia, in the experiment with OVCAR-3 ovarian, in the experiment on OVCAR-4 ovarian, in the experiment with OVCAR-8 ovarian and in the experiment with RXF 393 renal was over 100 µM throughout.

As to `Cn1cc(-c2ccc(CCOC3CCCCO3)cc2)c2c(C#N)cccc21` (stereo unspecified), the TGI in the experiment on CCRF-CEM leukemia, with HOP-92 NSCLC, with IGROV1 ovarian, with K-562 leukemia, in the experiment on MDA-MB-231 breast and in the experiment on MDA-MB-435 was over 100 µM each time. Also, the TGI with MOLT-4 leukemia, with OVCAR-3 ovarian, in the experiment with OVCAR-4 ovarian, in the experiment with OVCAR-8 ovarian, in the experiment on RXF 393 renal and in the experiment on SK-MEL-2 melanoma was over 100 µM each time. The compound further had a TGI in the experiment with UACC-62 melanoma of over 100 µM.

For `CC(C)C1OCC(CO)CO1` (stereo unspecified), the TGI in the experiment on CCRF-CEM leukemia, in the experiment on HOP-92 NSCLC, in the experiment on MDA-MB-231 breast, with MDA-MB-435, in the experiment on MOLT-4 leukemia and with OVCAR-3 ovarian was over 100 µM each time. Further, the TGI in the experiment with OVCAR-4 ovarian, with OVCAR-8 ovarian, in the experiment on RXF 393 renal, in the experiment on SK-MEL-2 melanoma and with UACC-62 melanoma was over 100 µM in each case.

With `O=[N+]([O-])c1cc(Cl)ccc1S(=O)(=O)c1ccccc1`, the TGI in the experiment with CCRF-CEM leukemia, in the experiment with HOP-92 NSCLC, with IGROV1 ovarian, with K-562 leukemia, in the experiment on MDA-MB-231 breast and with MDA-MB-435 was over 100 µM throughout. Further, the TGI is over 100 µM with MOLT-4 leukemia; over 100 µM in the experiment with OVCAR-3 ovarian; over 100 µM in the experiment with OVCAR-4 ovarian; over 100 µM in the experiment on OVCAR-8 ovarian; over 100 µM in the experiment with RXF 393 renal; 53.8 µM in the experiment on SK-MEL-2 melanoma. In the experiment on UACC-62 melanoma, this compound displayed a TGI of over 100 µM.

`CCCNc1[nH]c(C(C)=O)c(N)c1C(=S)Nc1ccccc1`: the TGI was over 100 µM in the experiment with CCRF-CEM leukemia; over 100 µM with HOP-92 NSCLC; over 100 µM in the experiment on IGROV1 ovarian; over 100 µM with K-562 leukemia; over 100 µM with MDA-MB-231 breast; 55.9 µM with MDA-MB-435. The TGI in the experiment with MOLT-4 leukemia was over 100 µM; in the experiment on OVCAR-3 ovarian it was over 100 µM; with OVCAR-4 ovarian, 74.5 µM; with OVCAR-8 ovarian it was over 100 µM; with RXF 393 renal it was 65.3 µM; in the experiment on SK-MEL-2 melanoma it was over 100 µM. In the experiment on UACC-62 melanoma, this compound displayed a TGI of 41.6 µM.

Regarding `O=[N+]([O-])C(=C1Nc2ccccc2N1)C(Cl)=C(Cl)Cl`, the TGI in the experiment with CCRF-CEM leukemia is 76 µM; with HOP-92 NSCLC, over 100 µM; in the experiment on IGROV1 ovarian, over 100 µM; with K-562 leukemia, over 100 µM; in the experiment on MDA-MB-231 breast, 90.3 µM; in the experiment with MDA-MB-435, over 100 µM. The TGI in the experiment with MOLT-4 leukemia was 56.3 µM; in the experiment on OVCAR-3 ovarian, 53.1 µM; in the experiment with OVCAR-4 ovarian, over 100 µM; in the experiment on OVCAR-8 ovarian, over 100 µM; with RXF 393 renal it was over 100 µM; in the experiment on SK-MEL-2 melanoma it was over 100 µM. In the experiment on UACC-62 melanoma, this compound returned a TGI of over 100 µM.

For the compound `Cc1ccc(C2SC(N)=Nc3c2c(C)nn3C(=O)c2ccncc2)cc1` (stereo unspecified), the TGI with CCRF-CEM leukemia, with HOP-92 NSCLC, with IGROV1 ovarian, in the experiment with K-562 leukemia, with MDA-MB-231 breast and in the experiment with MDA-MB-435 was over 10 µM in each case. Besides, the TGI in the experiment with MOLT-4 leukemia, in the experiment with OVCAR-3 ovarian, in the experiment on OVCAR-4 ovarian, with OVCAR-8 ovarian, in the experiment on RXF 393 renal and in the experiment with SK-MEL-2 melanoma was over 10 µM each time. In the experiment on UACC-62 melanoma, this compound showed a TGI of over 10 µM.

As to `CCOC(=O)c1sc2nc(SC)nc(Nc3ccc(OC)c(OC)c3)c2c1N`, the TGI was over 100 µM with CCRF-CEM leukemia; 25.4 µM in the experiment with HOP-92 NSCLC; over 100 µM in the experiment on IGROV1 ovarian; over 100 µM with K-562 leukemia; 82.4 µM in the experiment on MDA-MB-231 breast; over 100 µM in the experiment with MDA-MB-435. Further, the TGI in the experiment with OVCAR-3 ovarian is over 100 µM; in the experiment on OVCAR-4 ovarian, over 100 µM; with OVCAR-8 ovarian, over 100 µM; in the experiment with RXF 393 renal, 8.97 µM; in the experiment with SK-MEL-2 melanoma, over 100 µM; in the experiment with UACC-62 melanoma, over 100 µM.

Consider `CCCCCCCCCCCCCCCCCCNc1ccn(C2OC(CO)C(OP(=O)(O)OCC3CCC(n4ccc(N)nc4=O)O3)C2O)c(=O)n1` (stereo unspecified), for which the TGI in the experiment on CCRF-CEM leukemia is 58.1 µM; in the experiment with HOP-92 NSCLC, over 100 µM; with IGROV1 ovarian, over 100 µM; in the experiment on MDA-MB-231 breast it was over 100 µM; with MDA-MB-435, over 100 µM; with MOLT-4 leukemia, 10.2 µM. Moreover, the TGI in the experiment with OVCAR-3 ovarian was over 100 µM; in the experiment with OVCAR-4 ovarian, over 100 µM; in the experiment on OVCAR-8 ovarian, over 100 µM; with RXF 393 renal it was 45.1 µM; in the experiment on SK-MEL-2 melanoma, over 100 µM; in the experiment with UACC-62 melanoma, over 100 µM.

For the compound `Cc1cccc(C)c1NC(=S)/N=C/C1=C(O)c2ccccc2C1=O`, the TGI in the experiment on CCRF-CEM leukemia was over 100 µM; in the experiment on HOP-92 NSCLC it was over 65.8 µM; with IGROV1 ovarian, over 79.4 µM; in the experiment with K-562 leukemia, over 100 µM; in the experiment on MDA-MB-231 breast, over 100 µM; with MDA-MB-435 it was over 80.1 µM. Also, the TGI is over 100 µM in the experiment on OVCAR-3 ovarian; over 65.4 µM with OVCAR-4 ovarian; over 100 µM in the experiment on OVCAR-8 ovarian; over 100 µM with RXF 393 renal; over 83.3 µM in the experiment on SK-MEL-2 melanoma; over 70.8 µM with UACC-62 melanoma.

In the case of `COc1cc2cc(C(=O)N3CC(COS(C)(=O)=O)c4c3cc([N+](=O)[O-])c3ccccc43)[nH]c2c(OC)c1OC` (stereo unspecified), the TGI was over 31.6 µM in the experiment with CCRF-CEM leukemia; over 31.6 µM in the experiment with HOP-92 NSCLC; over 31.6 µM in the experiment with IGROV1 ovarian; over 100 µM in the experiment on K-562 leukemia; over 100 µM with MDA-MB-231 breast; over 31.6 µM in the experiment on MDA-MB-435. The TGI is over 31.6 µM in the experiment with OVCAR-3 ovarian; over 31.6 µM with OVCAR-4 ovarian; over 31.6 µM in the experiment on OVCAR-8 ovarian; over 100 µM in the experiment with RXF 393 renal; over 31.6 µM in the experiment with SK-MEL-2 melanoma; over 31.6 µM with UACC-62 melanoma.

Turning to `O=C1c2c(Br)sc(Br)c2[C@H]2NC(=S)O[C@@H]12`, the TGI in the experiment with HOP-92 NSCLC came out at 33.8 µM; in the experiment with IGROV1 ovarian, 32 µM; in the experiment with K-562 leukemia it was 20.7 µM; in the experiment with MDA-MB-231 breast, 32.2 µM; with MDA-MB-435 it was 29.1 µM; in the experiment on MOLT-4 leukemia, 5.31 µM. Also, the TGI in the experiment on OVCAR-3 ovarian was determined as 20.4 µM; in the experiment with OVCAR-4 ovarian it was 31.9 µM; in the experiment with OVCAR-8 ovarian it was 24.5 µM; with RXF 393 renal it was 27.9 µM; in the experiment with SK-MEL-2 melanoma, 33.4 µM; in the experiment on UACC-62 melanoma, 29.2 µM.

In the case of `CC(=O)OC1CC(OC2C(O)CC(OC3C(O)CC(OC4CCC5(C)C(CCC6C5CC(O)C5(C)C(C7=CC(=O)OC7)CCC65O)C4)OC3C)OC2C)OC(C)C1O` (stereo unspecified) (tested in a mixture with another compound), the TGI in the experiment on CCRF-CEM leukemia was over 100 µM; in the experiment with HOP-92 NSCLC it was 0.182 µM; with IGROV1 ovarian, 0.176 µM; in the experiment with K-562 leukemia it was 0.0685 µM; with MDA-MB-231 breast, 0.518 µM; in the experiment with MDA-MB-435, 0.357 µM. Moreover, the TGI was found to be 0.0507 µM in the experiment on OVCAR-3 ovarian; 0.0538 µM in the experiment on OVCAR-4 ovarian; 0.129 µM in the experiment on OVCAR-8 ovarian; 0.0812 µM in the experiment on RXF 393 renal; 0.207 µM in the experiment on SK-MEL-2 melanoma; 0.128 µM in the experiment with UACC-62 melanoma.

For `CC1C(c2ccccc2O)c2cc3c(cc2OC1N1CCCC1)OCO3` (stereo unspecified), the TGI with CCRF-CEM leukemia was over 100 µM; with HOP-92 NSCLC it was 69.3 µM; in the experiment with IGROV1 ovarian it was over 100 µM; in the experiment on K-562 leukemia, 41.8 µM; in the experiment with MDA-MB-231 breast it was 61.2 µM; in the experiment on MDA-MB-435, 81.9 µM. Moreover, the TGI with MOLT-4 leukemia was 65 µM; with OVCAR-3 ovarian it was 56.6 µM; with OVCAR-8 ovarian it was over 100 µM; with RXF 393 renal, 31.8 µM; in the experiment on SK-MEL-2 melanoma, 80 µM; with UACC-62 melanoma, over 100 µM.
